Measurements published in patent publication US20250136934A1, “PRODUCTION OF INDUCED MIDBRAIN DOPAMINERGIC PROGENITOR CELLS FROM PLURIPOTENT STEM CELLS” (NUWACELL BIOTECHNOLOGIES CO., LTD., priority 2023, published 2025).

Columns and labels:
OTX2+ imDAP cells = test: FACS analysis of OTX2 expression of imDAP cells derived from hiPSCs; assay type: cell-based, human; conditions: 4-step protocol, Day 16
Description: • 1. Individualize and collect cells by either Accutase or TrypLE treatment. • 2. Wash cells with 1 ml PBS and pellet cells at 250×g for […]. • 3. Remove supernatant, add ˜200 μl of 4% PFA, mix and fix for 10 min at RT. • 4. Pellet cells at 350×g for 5 min. • 5. Wash cells by 1 ml of FACS buffer and pellet cells at 350×g for 5 min. • 6. Remove supernatant, add 200 μl/tube of FACS buffer/0.1% Triton X, mix for 10 min at RT. • 7. Wash cells by 1 ml of FACS buffer and pellet cells at 350×g for 5 min. • 8. Remove supernatant, add 200 μl/tube of primary antibody diluted in FACS buffer, mix gently, and incubate for 30 min at RT. • 9. Wash cells by 1 ml of FACS buffer and pellet cells at 350×g for 5 min. • 10. Remove supernatant, and add 200 μl of secondary antibody diluted in FACS buffer, mix gently, and incubate for 30 min at RT. • 11. Wash cells by 1 ml of FACS buffer and pellet cells at 300×g for 5 min. • 12. Remove supernatant, add 200 μl of FACS buffer, and run samples on the flow cytometer.
On Day-1, EB formation (Stage 1) was carried out by dissociating hiPSCs (Nuwacell) to form a single-cell suspension and resuspending it in Epic medium (Nuwacell, #RP01001) containing 10 μM Blebbistatin (MCE, #HY-13441) in T25 flasks on a belly dancer and culturing the cells overnight. On Day 0, ventral midbrain floor plate differentiation (Stage 2) was initiated by changing the medium to a Stage 2-1 differentiation medium containing DMEM: F12/B27 (plus Vitamin A) (98:2, v/v) as basal medium and supplemented with 0.5 μM LDN193189, 10 μM SB431542, 500 ng/mL SHH C24II, 2 μM Purmorphamine, 10 nM SAG and 1.2 μM CHIR99021 and culturing the cells for 3 Days. […] The cells of each group were stained with OTX2-FITC antibody (Miltenyi, #130-121-195), the percentage of OTX2+ imDAP cells were analyzed by flow cytometry (FIG. 8A). The cells obtained by Boost-CHIR treatment from D4 to D6, D7 or D8, or from D5 to D7 or D8 were analyzed by qRT-PCR for dorsal midbrain marker PAX6 (FIG. 8B).

PAX6 = test: qRT-PCR analysis of dorsal midbrain marker PAX6 in imDAP cells; assay type: cell-based, human; conditions: exposure to Boost-CHIR 7.5 μM from Day 4 compared to from Day 5
Description: (1) qRT-PCR • 1. For qRT-PCR analysis of mRNA gene expression, RNA should be harvested from at least 2×10^6 cells. • 2. Harvest cells, add 350 μl of buffer RLT+1% (vol/vol) β-mercaptoethanol to the well, transfer the lysate to a 1.5 ml tube, and put it immediately on ice. • 3. Perform RNA extraction using the Tiangen Kit (DP430) and following the manufacturer's protocol ‘Purification of total RNA from animal and human cells’. • 4. When the RNA extraction was completed, determine the RNA concentration using a Nanodrop instrument. • 5. Perform the first-strand cDNA synthesis reaction with 1 μg of RNA using the HiScript™ II Q RT SuperMIX for qPCR (+gDNA wiper) Kit (Vazyme, #R223-01) for RT-qPCR. Follow the manufacturer's ‘First-Strand cDNA Synthesis’ protocol. This reaction would yield a 20 μl product. • 6. Dilute 10 μl cDNA product in 80 μl of nuclease-free water. • 7. […] In the analysis, the expression level of gene was determined by using a sample of undifferentiated hPSCs as control. • 8. Analyze the samples by running a quantitative PCR on the LightCycler 480 instrument using a 40x cycle two-step protocol with a 60° C., 60 sec annealing/elongation step and a 95° C., 30 sec denaturation step. […]

## Cc1cnc(-c2cnc(NCCNc3ccc(C#N)cn3)nc2-c2ccc(Cl)cc2Cl)[nH]1 [CHIR, CHIR99021]
OTX2+ imDAP cells; Boost-CHIR 7.5 μM from Day 4 to Day 6 (Stage 2-2)
  percentage of cells positive for OTX2: 75.29%
OTX2+ imDAP cells; Boost-CHIR 7.5 μM from Day 4 to Day 7 (Stage 2-2)
  percentage of cells positive for OTX2: 71.92%
OTX2+ imDAP cells; Boost-CHIR 7.5 μM from Day 4 to Day 8 (Stage 2-2)
  percentage of cells positive for OTX2: 79.83%
PAX6
  expression of PAX6: lower
